From patent US11407721B2, “CIS-morpholinone and other compounds as MDM2 inhibitors for the treatment of cancer” (AMGEN INC., priority 2013, dated 2022) come the findings set out here.

In test [1] the target is interaction between HDM2 and p53 (GST-hMDM2 (1-188) / biotinylated-p53 (1-83)) (Homo sapiens (Human), UniProt Q00987). Nature of the test: HTRF2 Assay (improved HTRF assay). It counts as binding. Particulars: read-out: HTRF2 IC50.
Test [2] concerns the target interaction between HDM2 and p53 (GST-hMDM2 / biotinylated-p53) (Homo sapiens (Human), UniProt Q00987). Nature of the test: biochemical.
The mark [3] stands for this setting: 0.2 nM GST-hMDM2 (1-188), 0.5 nM biotinylated-p53 (1-83), 100 mM KF.

Like-named read-outs stand apart in the source and are kept apart here.

Sequence of interaction between HDM2 and p53 (GST-hMDM2 (1-188) / biotinylated-p53 (1-83)) (Q00987 1-188): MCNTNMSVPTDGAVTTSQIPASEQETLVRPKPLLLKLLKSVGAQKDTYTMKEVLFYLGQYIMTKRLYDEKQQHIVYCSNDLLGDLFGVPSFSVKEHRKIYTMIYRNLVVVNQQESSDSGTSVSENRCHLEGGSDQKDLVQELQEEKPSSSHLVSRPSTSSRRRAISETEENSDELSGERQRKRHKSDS
Sequence of interaction between HDM2 and p53 (GST-hMDM2 / biotinylated-p53) (Q00987 1-188): as above

As for `CN1C(=O)/C(=C/c2cccnc2)O[C@H](c2ccc(Cl)cc2)C1c1ccc(Cl)cc1` (mixture of isomers) [Example 39, (5S,6R,Z)-5,6-Bis(4-chlorophenyl)-4-methyl-2-(pyridin-3-ylmethylene)morpholin-3-one and (5R,6S,Z)-5,6-bis(4-chlorophenyl)-4-methyl-2-(pyridin-3-ylmethylene)morpholin-3-one], the IC50 in test [1] (setting [3]) worked out at 6.64 µM; in test [2] it was 10.4 µM.
For `CCC[C@@H](C(=O)O)N1C(=O)[C@@H](Cc2ccncc2)O[C@H](c2ccc(Cl)cc2)C1c1ccc(Cl)cc1` (mixture of isomers) [Example 42, (S)-2-((2R,3S,6R)-2,3-Bis(4-chlorophenyl)-5-oxo-6-(pyridin-4-ylmethyl)morpholino)pentanoic acid and (R)-2-((2S,3R,6S)-2,3-bis(4-chlorophenyl)-5-oxo-6-(pyridin-4-ylmethyl)morpholino)pentanoic acid] the same measures were 0.947 µM and 0.539 µM.
For the molecule `O=C1[C@H](C[C@H](O)CO)O[C@@H](c2cccc(Cl)c2)[C@@H](c2ccc(Cl)cc2)N1CC1CC1` (racemic) [Example 14, Step B], the figures for the IC50 in test [1] and in test [2] were 3.67 µM and 4.64 µM, respectively.
The corresponding values for `O=CC[C@@H]1O[C@@H](c2cccc(Cl)c2)[C@@H](c2ccc(Cl)cc2)N(CC2CC2)C1=O` (racemic) [Example 15, (2-((2S,5R,6S)-6-(3-Chlorophenyl)-5-(4-chlorophenyl)-4-(cyclopropylmethyl)-3-oxomorpholin-2-yl)acetaldehydeacetaldehyde and (2-((2R,5S,6R)-6-(3-chlorophenyl)-5-(4-chlorophenyl)-4-(cyclopropylmethyl)-3-oxomorpholin-2-yl)acetaldehydeacetaldehyde] are 3.32 µM and 3.96 µM.
`CCC[C@H](c1nnn[nH]1)N1C(=O)[C@H](Cc2ccc(I)cc2)O[C@@H](c2ccc(Cl)cc2)[C@H]1c1ccc(Cl)cc1` (racemic) [Example 36, (2S,5R,6S)-4-((R)-1-(1H-Tetrazol-5-yl)butyl)-5,6-bis(4-chlorophenyl)-2-(4-iodobenzyl)morpholin-3-one and (2R,5S,6R)-4-((S)-1-(1H-tetrazol-5-yl)butyl)-5,6-bis(4-chlorophenyl)-2-(4-iodobenzyl)morpholin-3-one] had an IC50 in test [2] of 0.514 µM.
The same measure, in the same setting: the result for `CN1C(=O)[C@@H](CC(N)=O)O[C@H](c2ccc(Cl)cc2)[C@@H]1c1ccc(Cl)cc1` [2-((2R,5S,6R)-5,6-bis(4-chlorophenyl)-4-methyl-3-oxo-2-morpholinyl)acetamide] reads 43.9 µM; that for `CC[C@H](C(=O)O)N1C(=O)CO[C@H](c2ccc(Cl)cc2)[C@@H]1c1ccc(Cl)cc1` [(2R)-2-((2R,3S)-2,3-bis(4-chlorophenyl)-5-oxo-4-morpholinyl)butanoic acid], 40.2 µM.
In test [2], `CCCC[C@H](C(=O)O)N1C(=O)CO[C@H](c2ccc(Cl)cc2)[C@@H]1c1ccc(Cl)cc1` [(2R)-2-((2R,3S)-2,3-bis(4-chlorophenyl)-5-oxo-4-morpholinyl)hexanoic acid] came in with an IC50 of 33.1 µM.
Same read-out and setting: the result for `C[C@H](C(=O)O)N1C(=O)CO[C@H](c2ccc(Cl)cc2)[C@@H]1c1ccc(Cl)cc1` [(2R)-2-((2R,3S)-2,3-bis(4-chlorophenyl)-5-oxo-4-morpholinyl)propanoic acid] reads 61.7 µM; that for `C[C@H]1O[C@@H](c2ccc(Br)cc2)[C@@H](c2ccc(Br)cc2)N(C)C1=O` [(2R,5R,6S)-5,6-bis(4-bromophenyl)-2,4-dimethyl-3-morpholinone], 46.8 µM.
On the same count and under the same terms, the figure for `CN1C(=O)[C@H](O)O[C@@H](c2ccc(Cl)cc2)[C@H]1c1ccc(Cl)cc1` [(2R,5R,6S)-5,6-bis(4-chlorophenyl)-2-hydroxy-4-methyl-3-morpholinone] is 67.5 µM; for `CN1C(=O)CN(Cc2ccccc2)[C@H](c2ccc(Br)cc2)[C@@H]1c1ccc(Br)cc1` [(5R,6S)-5,6-bis(4-bromophenyl)-1-methyl-4-(phenylmethyl)-2-piperazinone] it is 72.3 µM; for `O=C1CN(Cc2ccccc2)[C@H](c2ccc(Br)cc2)[C@H](c2ccc(Br)cc2)N1` [(5R,6S)-5,6-bis(4-bromophenyl)-4-(phenylmethyl)-2-piperazinone] it is 84.4 µM.
For `O=C1CO[C@@H](c2ccc(Br)cc2)[C@@H](c2ccc(Br)cc2)N1C1CC1` [(5R,6S)-5,6-bis(4-bromophenyl)-4-cyclopropyl-3-morpholinone], 38.2 µM corresponded to half-maximal inhibition in test [2] (IC50).
Same read-out and setting: the result for `O=C1CO[C@@H](c2ccc(Cl)cc2)[C@@H](c2ccc(Cl)cc2)N1CC1CC1` [(5R,6S)-5,6-bis(4-chlorophenyl)-4-(cyclopropylmethyl)-3-morpholinone] reads 41.8 µM; that for `CCN1C(=O)CO[C@H](c2ccc(Br)cc2)[C@@H]1c1ccc(Br)cc1` [(5S,6R)-5,6-bis(4-bromophenyl)-4-ethyl-3-morpholinone], 42.4 µM.
With `CCC[C@H](C(=O)O)N1C(=O)[C@H](Cc2ccc(S(C)(=O)=O)cc2)O[C@@H](c2ccc(Cl)cc2)[C@H]1c1ccc(Cl)cc1` [Example 54, (R)-2-((2S,3R,6S)-2,3-Bis(4-chlorophenyl)-6-(4-(methylsulfonyl)benzyl)-5-oxomorpholino)pentanoic acid], the IC50 in test [1] (setting [3]) was 0.196 µM.
Same read-out and setting: the result for `CCC[C@H](C(=O)O)N1C(=O)[C@H](Cc2ccc(S(C)(=O)=O)cc2C#N)O[C@@H](c2ccc(Cl)cc2)[C@H]1c1ccc(Cl)cc1` [Example 55, (R)-2-((2S,3R,6S)-2,3-Bis(4-chlorophenyl)-6-(2-cyano-4-(methylsulfonyl)benzyl)-5-oxomorpholino)pentanoic acid] reads 0.179 µM; that for `CCC[C@H](C(=O)O)N1C(=O)[C@H](Cc2ccc(S(=O)(=O)C(F)(F)F)cc2)O[C@@H](c2ccc(Cl)cc2)[C@H]1c1ccc(Cl)cc1` [Example 56, (R)-2-((2S,3R,6S)-2,3-Bis(4-chlorophenyl)-5-oxo-6-(4-((trifluoromethyl)sulfonyl)benzyl)morpholino)pentanoic acid], 0.453 µM; that for `CCC[C@H](C(=O)O)N1C(=O)[C@H](CCCN2CCOCC2)O[C@@H](c2ccc(Cl)cc2)[C@H]1c1ccc(Cl)cc1` [Example 57, (R)-2-((2S,3R,6S)-2,3-Bis(4-chlorophenyl)-6-(3-morpholinopropyl)-5-oxomorpholino)pentanoic acid], 0.391 µM.
Still for that read-out and setting: the result for `CCC[C@H](C(=O)OCC)N1C(=O)[C@H](CCCN2CCOCC2)O[C@@H](c2ccc(Cl)cc2)[C@H]1c1ccc(Cl)cc1` [ethyl (2R)-2-((2S,3R,6S)-2,3-bis(4-chlorophenyl)-6-(3-(4-morpholinyl)propyl)-5-oxo-4-morpholinyl)pentanoate] reads 2.79 µM; that for `CCC[C@H](C(=O)NCCCC(=O)OC)N1C(=O)[C@H](Cc2ccc(S(C)(=O)=O)cc2)O[C@@H](c2ccc(Cl)cc2)[C@H]1c1ccc(Cl)cc1` [methyl 4-(((2R)-2-((2S,3R,6S)-2,3-bis(4-chlorophenyl)-6-(4-(methylsulfonyl)benzyl)-5-oxo-4-morpholinyl)pentanoyl)amino)butanoate], 0.749 µM.
